Results published in EP3782997A1, “FUSED PYRIMIDINE COMPOUNDS AND PHARMACEUTICAL COMPOSITIONS THEREOF FOR THE TREATMENT OF FIBROTIC DISEASES” (Galapagos N.V., priority 2019, dated 2021).

Target: hENPP2 (Homo sapiens, UniProt Q13822)
Assay: Human ENPP2 (hENPP2) biochemical assay using LPC as substrate
Details: 150 µM LPC (palmitoyl 16:0), 37°C for 30 min
How it was run: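 IC50 came from compound series (top 50 µM, 1/3 steps) incubated 30 min at 37°C with 1 or 3 µg/mL final enzyme and palmitoyl LPC added at 150 µM, pH 8.5 Tris buffer with Ca2+. Choline output measured as quinoneimine dye at 555 nm via coupled oxidase/HRP/TOOS detection.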

| SMILES | IC50 [nM] |
| --- | --- |
| C[C@@H]1C[C@H](N2Cc3cnc(Nc4ccc(Cl)cc4)nc3C2)CCN1C(=O)c1ccc2[nH]nnc2c1 [compound 135, 1H-benzotriazol-5-yl-[(2R,4R)-4-[2-(4-chloroanilino)-5,7-dihydropyrrolo[3,4-d]pyrimidin-6-yl]-2-methyl-1-piperidyl]methanone] | 0.01 to 100 |
| Cc1cc(C)cc(Nc2ncc3c(n2)CN(C2CCN(C(=O)c4cc5nn[nH]c5cn4)CC2)C3)c1 [compound 140, [4-[2-(3,5-dimethylanilino)-5,7-dihydropyrrolo[3,4-d]pyrimidin-6-yl]-1-piperidyl]-(3H-triazolo[4,5-c]pyridin-6-yl)methanone] | 100 to 500 |
| CCOc1cc2[nH]nnc2cc1C(=O)N1CCC(N2Cc3cnc(Nc4cc(C)cc(C)c4)nc3C2)CC1 [compound 141, [4-[2-(3,5-dimethylanilino)-5,7-dihydropyrrolo[3,4-d]pyrimidin-6-yl]-1-piperidyl]-(6-ethoxy-1H-benzotriazol-5-yl)methanone] | 0.01 to 100 |
| C[C@@H]1C[C@@H](N2Cc3cnc(Nc4ccc(F)cc4)nc3C2)CCN1C(=O)c1ccc2[nH]nnc2c1 [compound 143, 1H-benzotriazol-5-yl-[(2R,4S)-4-[2-(4-fluoroanilino)-5,7-dihydropyrrolo[3,4-d]pyrimidin-6-yl]-2-methyl-1-piperidyl]methanone] | 500 to 1000 |
| C[C@@H]1C[C@H](N2Cc3cnc(Nc4ccc(F)cc4)nc3C2)CCN1C(=O)c1ccc2[nH]nnc2c1 [compound 144, 1H-benzotriazol-5-yl-[(2R,4R)-4-[2-(4-fluoroanilino)-5,7-dihydropyrrolo[3,4-d]pyrimidin-6-yl]-2-methyl-1-piperidyl] methanone] | 0.01 to 100 |
| COC(=O)c1cccc(C(=O)N2CC[C@@H](N3Cc4cnc(Nc5cc(C)cc(C)c5)nc4C3)C[C@H]2C)c1 [compound 145, methyl 3-[(2R,4R)-4-[2-(3,5-dimethylanilino)-5,7-dihydropyrrolo[3,4-d]pyrimidin-6-yl]-2-methyl-piperidine-1-carbonyl]benzoate] | > 1000 |
| Cc1cc(C)cc(Nc2ncc3c(n2)CN([C@@H]2CCN(C(=O)c4c[nH]nn4)[C@H](C)C2)C3)c1 [compound 147, [(2R,4R)-4-[2-(3,5-dimethylanilino)-5,7-dihydropyrrolo[3,4-d]pyrimidin-6-yl]-2-methyl-1-piperidyl]-(1H-triazol-4-yl)methanone] | 0.01 to 100 |
| COc1ccc(Nc2ncc3c(n2)CN([C@@H]2CCN(C(=O)c4ccc5[nH]nnc5c4)[C@H](C)C2)C3)cc1 [compound 149, 1H-benzotriazol-5-yl-[(2R,4R)-4-[2-(4-methoxyanilino)-5,7-dihydropyrrolo[3,4-d]pyrimidin-6-yl]-2-methyl-1-piperidyl] methanone] | 0.01 to 100 |
| C[C@@H]1C[C@H](N2Cc3cnc(Nc4ccc(S(F)(F)(F)(F)F)cc4)nc3C2)CCN1C(=O)c1ccc2[nH]nnc2c1 [compound 150, 1H-benzotriazol-5-yl-[(2R,4R)-2-methyl-4-[2-[4-(pentafluoro-λ^6-sulfanyl)anilino]-5,7-dihydropyrrolo[3,4-d]pyrimidin-6-yl]-1-piperidyl]methanone] | 0.01 to 100 |
| COc1cc(Nc2ncc3c(n2)CN([C@@H]2CCN(C(=O)c4ccc5[nH]nnc5c4)[C@H](C)C2)C3)cc(OC)c1 [compound 151, 1H-benzotriazol-5-yl-[(2R,4R)-4-[2-(3,5-dimethoxyanilino)-5,7-dihydropyrrolo[3,4-d]pyrimidin-6-yl]-2-methyl-1-piperidyl]methanone] | 0.01 to 100 |
| C[C@@H]1C[C@H](N2Cc3cnc(Nc4ccc(C(F)(F)F)cc4)nc3C2)CCN1C(=O)c1ccc2[nH]nnc2c1 [compound 152, 1H-benzotriazol-5-yl-[(2R,4R)-2-methyl-4-[2-[4-(trifluoromethyl)anilino]-5,7-dihydropyrrolo[3,4-d]pyrimidin-6-yl]-1-piperidyl]methanone] | 0.01 to 100 |
| Cc1cc(C)cc(Nc2ncc3c(n2)CN([C@@H]2CCN(C(=O)c4ccnc(NS(C)(=O)=O)c4)[C@H](C)C2)C3)c1 [compound 154, N-[4-[(2R,4R)-4-[2-(3,5-dimethylanilino)-5,7-dihydropyrrolo[3,4-d]pyrimidin-6-yl]-2-methyl-piperidine-1-carbonyl]-2-pyridyl]methanesulfonamide] | 0.01 to 100 |
| Cc1cc(C)cc(Nc2ncc3c(n2)CN([C@@H]2CCN(C(=O)c4ccc(NS(C)(=O)=O)nc4)[C@H](C)C2)C3)c1 [compound 155, N-[5-[(2R,4R)-4-[2-(3,5-dimethylanilino)-5,7-dihydropyrrolo[3,4-d]pyrimidin-6-yl]-2-methyl-piperidine-1-carbonyl]-2-pyridyl]methanesulfon amide] | 0.01 to 100 |
| Cc1cc(C)cc(Nc2ncc3c(n2)CN([C@@H]2CCN(C(=O)c4ccc5c(c4)CC(=O)N5)[C@H](C)C2)C3)c1 [compound 156, 5-[(2R,4R)-4-[2-(3,5-dimethylanilino)-5,7-dihydropyrrolo[3,4-d]pyrimidin-6-yl]-2-methyl-piperidine-1-carbonyl]indolin-2-one] | 0.01 to 100 |
| Cc1cc(C)cc(Nc2ncc3c(n2)CN([C@@H]2CCN(C(=O)c4ccc5[nH]c(=O)[nH]c5c4)[C@H](C)C2)C3)c1 [compound 157, 5-[(2R,4R)-4-[2-(3,5-dimethylanilino)-5,7-dihydropyrrolo[3,4-d]pyrimidin-6-yl]-2-methyl-piperidine-1-carbonyl]-1,3-dihydrobenzimidazol-2-one] | 0.01 to 100 |
| Cc1cc(C)cc(Nc2ncc3c(n2)CN([C@@H]2CCN(C(=O)c4ccc(S(N)(=O)=O)nc4)[C@H](C)C2)C3)c1 [compound 159, 5-[(2R,4R)-4-[2-(3,5-dimethylanilino)-5,7-dihydropyrrolo[3,4-d]pyrimidin-6-yl]-2-methyl-piperidine-1-carbonyl]pyridine-2-sulfonamide] | 500 to 1000 |
| Cc1cc(C)cc(Nc2ncc3c(n2)CN([C@@H]2CCN(C(=O)c4cn(C)nn4)[C@H](C)C2)C3)c1 [compound 161, [(2R,4R)-4-[2-(3,5-dimethylanilino)-5,7-dihydropyrrolo[3,4-d]pyrimidin-6-yl]-2-methyl-1-piperidyl]-(1-methyltriazol-4-yl)methanone] | > 1000 |
| Cc1cc(C)cc(Nc2ncc3c(n2)CCN(C2CCN(C(=O)c4c[nH]nn4)CC2)C3)c1 [compound 162, [4-[2-(3,5-dimethylanilino)-7,8-dihydro-5H-pyrido[4,3-d]pyrimidin-6-yl]-1-piperidyl]-(1H-triazol-4-yl)methanone] | > 1000 |
| Cc1cc(C)cc(Nc2ncc3c(n2)CN([C@@H]2CCN(C(=O)c4cc5nn[nH]c5cc4C)[C@H](C)C2)C3)c1 [compound 163, [(2R,4R)-4-[2-(3,5-dimethylanilino)-5,7-dihydropyrrolo[3,4-d]pyrimidin-6-yl]-2-methyl-1-piperidyl]-(6-methyl-1H-benzotriazol-5-yl)methanone] | 0.01 to 100 |
| C[C@@H]1C[C@@H](N2Cc3cnc(Nc4ccccc4)nc3C2)CCN1C(=O)c1ccc2[nH]nnc2c1 [compound 165, [(2R,4S)-4-(2-anilino-5,7-dihydropyrrolo[3,4-d]pyrimidin-6-yl)-2-methyl-1-piperidyl]-(1H-benzotriazol-5-yl)methanone] | > 1000 |
| C[C@@H]1C[C@H](N2Cc3cnc(Nc4ccccc4)nc3C2)CCN1C(=O)c1ccc2[nH]nnc2c1 [compound 166, [(2R,4R)-4-(2-anilino-5,7-dihydropyrrolo[3,4-d]pyrimidin-6-yl)-2-methyl-1-piperidyl]-(1H-benzotriazol-5-yl)methanone] | 100 to 500 |
